According to ChEMBL document CHEMBL4507287, “Data for DCP probe MRL-650” (2021):
Calls of active or inactive are those of the source. The calls are words filed in the database; no cut-off is given here.

Assays:
[1] = target: 5-hydroxytryptamine receptor 2A (Homo sapiens, UniProt P28223); test: GPCRScan assay: inhibition of 5-HT2A; design: radioligand conc. used [nm] 1.2 – 2.4, parental cells HEKT
[2] = target: 5-hydroxytryptamine receptor 2C (Homo sapiens, UniProt P28335); test: GPCRScan assay: inhibition of 5-HT2C; design: radioligand conc. used [nm] 1.0 – 2.5, parental cells HEK T
[3] = target: Sodium-dependent dopamine transporter (Homo sapiens, UniProt Q01959); test: GPCRScan assay: inhibition of DAT; design: radioligand conc. used [nm] 3.6 – 16.0, parental cells stable HEK
[4] = target: Delta-type opioid receptor (Homo sapiens, UniProt P41143); test: GPCRScan assay: inhibition of DOR; design: radioligand conc. used [nm] 1.0 – 2.0, parental cells stable HEK
[5] = target: Alpha-2B adrenergic receptor (Homo sapiens, UniProt P18089); test: GPCRScan assay: inhibition of Alpha2B; design: radioligand conc. used [nm] 1.5 – 2.0, parental cells HEKT
[6] = target: Alpha-2C adrenergic receptor (Homo sapiens, UniProt P18825); test: GPCRScan assay: inhibition of Alpha2C; design: radioligand conc. used [nm] 0.5 – 1.0, parental cells stable MDCK
[7] = target: Beta-3 adrenergic receptor (Homo sapiens, UniProt P13945); test: GPCRScan assay: inhibition of Beta3; design: radioligand conc. used [nm] 0.2 – 0.5, parental cells HEK Flp-In
[8] = target: GABA-A receptor; anion channel; test: GPCRScan assay: inhibition of GABAA/BZP; assay type: protein-complex assay, Rattus norvegicus; design: radioligand conc. used [nm] 0.6 – 4.0, parental cells brain tissue
Cannabinoid receptor 1 [9] = target: T1, Cannabinoid receptor 1 (Homo sapiens, UniProt P21554); test: Radioligand Binding Assay (CNR1)
[10] = test system: Tyrosine-protein kinase ABL1 (Homo sapiens), P00519 [F317L]; details: Compound concentration 1000.0 nM
[11] = test system: Tyrosine-protein kinase ABL1 (Homo sapiens), P00519 [T315I]; details: Compound concentration 1000.0 nM
[12] = target: Atypical kinase COQ8B, mitochondrial (Homo sapiens) (UniProt Q96D53); details: Compound concentration 1000.0 nM
[13] = target: Aurora kinase C (Homo sapiens) (UniProt Q9UQB9); details: Compound concentration 1000.0 nM
[14] = target: Tyrosine-protein kinase Blk (Homo sapiens) (UniProt P51451); details: Compound concentration 1000.0 nM
[15] = target: Dual specificity protein kinase CLK1 (Homo sapiens) (UniProt P49759); details: Compound concentration 1000.0 nM
[16] = target: Fibroblast growth factor receptor 3 (Homo sapiens) (UniProt P22607); details: Compound concentration 1000.0 nM
[17] = target: Rhodopsin kinase GRK7 (Homo sapiens) (UniProt Q8WTQ7); details: Compound concentration 1000.0 nM
[18] = target: Interferon-induced, double-stranded RNA-activated protein kinase (Homo sapiens) (UniProt P19525); details: Compound concentration 1000.0 nM
[19] = target: Transient receptor potential cation channel subfamily M member 6 (Homo sapiens) (UniProt Q9BX84); details: Compound concentration 1000.0 nM
[20] = target: Serine/threonine-protein kinase 32B (Homo sapiens) (UniProt Q9NY57); details: Compound concentration 1000.0 nM
[21] = target: 5-hydroxytryptamine receptor 1A (Homo sapiens) (UniProt P08908); details: Compound concentration 10.0 uM
[22] = target: 5-hydroxytryptamine receptor 1E (Homo sapiens) (UniProt P28566); details: Compound concentration 10.0 uM
[23] = target: D(1A) dopamine receptor (Homo sapiens) (UniProt P21728); details: Compound concentration 10.0 uM
[24] = target: GABA-A receptor; anion channel (Rattus norvegicus) (UniProt O09028+P15431+P18506+P18508+P19969+P20236+P23574+P23576+P28471+P28473+P30191+P62813+P63079+P63138+Q91ZM7+Q9ES14); details: Compound concentration 10.0 uM
[25] = target: Alpha-2A adrenergic receptor (Homo sapiens) (UniProt P08913); details: Compound concentration 10.0 uM
[26] = target: Beta-1 adrenergic receptor (Homo sapiens) (UniProt P08588); details: Compound concentration 10.0 uM
[27] = GPCRScan assay: inhibition of GABA/PBR; design: species or system Rattus norvegicus; radioligand conc. used [nm] 0.3 – 2.0, parental cells brain tissue
[28] = target: Sigma intracellular receptor 2 (Homo sapiens, UniProt Q5BJF2); test: GPCRScan assay: inhibition of Sigma 2; design: radioligand conc. used [nm] 5.0, parental cells HEKT
[29] = target: Sigma non-opioid intracellular receptor 1 (Homo sapiens, UniProt Q99720); test: GPCRScan assay: inhibition of Sigma 1; design: radioligand conc. used [nm] 4.0 – 5.0, parental cells HEKT
Cannabinoid receptor 1 [30] = target: T1, Cannabinoid receptor 1; test: Functional activation assay
[31] = target: 5-hydroxytryptamine receptor 6 (Homo sapiens) (UniProt P50406); details: Compound concentration 10.0 uM
[32] = target: 5-hydroxytryptamine receptor 7 (Homo sapiens) (UniProt P34969); details: Compound concentration 10.0 uM
[33] = target: Sodium-dependent serotonin transporter (Homo sapiens) (UniProt P31645); details: Compound concentration 10.0 uM
[34] = target: Histamine H4 receptor (Homo sapiens) (UniProt Q9H3N8); details: Compound concentration 10.0 uM

Chain of Interferon-induced, double-stranded RNA-activated protein kinase (Homo sapiens) (P19525 whole entry): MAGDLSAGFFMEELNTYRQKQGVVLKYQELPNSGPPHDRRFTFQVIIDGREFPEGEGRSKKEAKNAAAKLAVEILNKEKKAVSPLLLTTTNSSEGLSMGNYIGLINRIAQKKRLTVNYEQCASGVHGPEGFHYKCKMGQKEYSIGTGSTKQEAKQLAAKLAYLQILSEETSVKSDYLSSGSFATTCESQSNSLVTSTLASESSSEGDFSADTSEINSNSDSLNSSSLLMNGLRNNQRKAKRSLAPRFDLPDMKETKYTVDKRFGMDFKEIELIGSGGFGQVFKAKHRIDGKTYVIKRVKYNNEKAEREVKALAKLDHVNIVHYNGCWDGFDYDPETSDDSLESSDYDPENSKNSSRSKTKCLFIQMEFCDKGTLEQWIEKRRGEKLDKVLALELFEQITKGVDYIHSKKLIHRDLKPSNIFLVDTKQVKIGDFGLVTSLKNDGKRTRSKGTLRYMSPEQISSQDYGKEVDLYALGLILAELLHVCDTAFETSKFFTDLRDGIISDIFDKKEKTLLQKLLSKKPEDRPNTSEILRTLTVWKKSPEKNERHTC
Chain of Dual specificity protein kinase CLK1 (Homo sapiens) (P49759 whole entry, looked up): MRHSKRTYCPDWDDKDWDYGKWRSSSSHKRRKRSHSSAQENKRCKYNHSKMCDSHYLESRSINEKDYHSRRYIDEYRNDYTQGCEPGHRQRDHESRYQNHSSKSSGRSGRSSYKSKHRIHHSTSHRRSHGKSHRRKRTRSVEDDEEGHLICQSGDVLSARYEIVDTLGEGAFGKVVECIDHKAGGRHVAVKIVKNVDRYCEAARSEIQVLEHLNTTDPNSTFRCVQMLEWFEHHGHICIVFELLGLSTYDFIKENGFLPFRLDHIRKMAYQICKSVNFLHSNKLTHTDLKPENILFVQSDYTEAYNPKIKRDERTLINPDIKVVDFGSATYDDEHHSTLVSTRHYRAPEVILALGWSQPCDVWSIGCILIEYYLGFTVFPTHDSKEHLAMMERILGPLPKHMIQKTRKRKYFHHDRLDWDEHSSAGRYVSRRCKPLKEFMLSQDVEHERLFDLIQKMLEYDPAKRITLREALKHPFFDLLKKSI
Chain of Atypical kinase COQ8B, mitochondrial (Homo sapiens) (Q96D53 whole entry): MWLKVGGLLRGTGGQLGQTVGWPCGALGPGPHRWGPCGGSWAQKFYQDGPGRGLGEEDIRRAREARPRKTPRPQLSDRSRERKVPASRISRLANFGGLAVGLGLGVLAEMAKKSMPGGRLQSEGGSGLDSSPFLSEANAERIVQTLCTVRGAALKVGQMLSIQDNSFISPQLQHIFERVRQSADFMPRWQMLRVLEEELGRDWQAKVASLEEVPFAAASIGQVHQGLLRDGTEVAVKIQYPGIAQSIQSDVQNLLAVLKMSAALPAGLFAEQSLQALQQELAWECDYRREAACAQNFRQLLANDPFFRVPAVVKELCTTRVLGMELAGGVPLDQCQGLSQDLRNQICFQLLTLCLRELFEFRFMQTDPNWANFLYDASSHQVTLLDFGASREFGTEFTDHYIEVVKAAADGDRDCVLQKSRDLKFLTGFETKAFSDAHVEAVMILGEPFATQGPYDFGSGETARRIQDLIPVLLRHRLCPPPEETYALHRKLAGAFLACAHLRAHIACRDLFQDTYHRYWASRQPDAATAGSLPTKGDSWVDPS
Chain of Fibroblast growth factor receptor 3 (Homo sapiens) (P22607 23-806 limits assumed): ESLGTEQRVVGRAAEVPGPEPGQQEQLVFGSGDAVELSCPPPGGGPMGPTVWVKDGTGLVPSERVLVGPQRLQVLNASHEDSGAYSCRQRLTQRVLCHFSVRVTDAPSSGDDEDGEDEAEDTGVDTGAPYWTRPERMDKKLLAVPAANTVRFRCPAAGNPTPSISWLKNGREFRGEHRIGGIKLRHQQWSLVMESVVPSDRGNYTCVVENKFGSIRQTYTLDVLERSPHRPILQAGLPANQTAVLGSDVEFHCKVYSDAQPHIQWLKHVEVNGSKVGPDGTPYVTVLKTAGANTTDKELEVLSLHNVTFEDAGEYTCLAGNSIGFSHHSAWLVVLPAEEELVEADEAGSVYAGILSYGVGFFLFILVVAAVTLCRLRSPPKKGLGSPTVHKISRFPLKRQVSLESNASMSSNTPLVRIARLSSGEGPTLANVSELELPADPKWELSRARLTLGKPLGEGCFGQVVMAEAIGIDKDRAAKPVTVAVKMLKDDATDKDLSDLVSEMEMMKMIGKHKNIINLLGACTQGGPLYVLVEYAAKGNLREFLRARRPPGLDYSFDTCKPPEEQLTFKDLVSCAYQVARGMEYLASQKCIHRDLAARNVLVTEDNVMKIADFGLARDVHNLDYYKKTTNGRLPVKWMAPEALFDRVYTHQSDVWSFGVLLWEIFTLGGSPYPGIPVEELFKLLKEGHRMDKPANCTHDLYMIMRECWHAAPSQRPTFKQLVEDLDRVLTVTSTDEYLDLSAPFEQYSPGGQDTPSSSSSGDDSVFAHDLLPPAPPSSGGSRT
Chain of Sodium-dependent dopamine transporter (Q01959 whole entry): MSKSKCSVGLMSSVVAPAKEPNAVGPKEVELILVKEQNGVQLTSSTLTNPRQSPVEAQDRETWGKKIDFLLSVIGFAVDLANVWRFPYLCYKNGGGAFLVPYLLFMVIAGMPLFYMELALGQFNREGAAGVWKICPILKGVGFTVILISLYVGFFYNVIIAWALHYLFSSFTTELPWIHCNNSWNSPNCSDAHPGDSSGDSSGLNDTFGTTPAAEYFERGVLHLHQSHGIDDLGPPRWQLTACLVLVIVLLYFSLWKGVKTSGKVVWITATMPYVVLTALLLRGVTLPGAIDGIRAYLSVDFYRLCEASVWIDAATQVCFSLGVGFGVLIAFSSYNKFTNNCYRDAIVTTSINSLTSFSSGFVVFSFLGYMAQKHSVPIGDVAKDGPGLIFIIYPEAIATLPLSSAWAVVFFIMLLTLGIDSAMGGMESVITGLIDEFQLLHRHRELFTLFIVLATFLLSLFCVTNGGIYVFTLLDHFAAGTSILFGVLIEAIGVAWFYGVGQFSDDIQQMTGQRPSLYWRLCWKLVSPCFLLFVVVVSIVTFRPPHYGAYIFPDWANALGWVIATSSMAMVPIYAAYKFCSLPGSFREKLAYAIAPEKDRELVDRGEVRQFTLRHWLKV
Chain of Tyrosine-protein kinase Blk (Homo sapiens) (P51451 2-505 limits assumed): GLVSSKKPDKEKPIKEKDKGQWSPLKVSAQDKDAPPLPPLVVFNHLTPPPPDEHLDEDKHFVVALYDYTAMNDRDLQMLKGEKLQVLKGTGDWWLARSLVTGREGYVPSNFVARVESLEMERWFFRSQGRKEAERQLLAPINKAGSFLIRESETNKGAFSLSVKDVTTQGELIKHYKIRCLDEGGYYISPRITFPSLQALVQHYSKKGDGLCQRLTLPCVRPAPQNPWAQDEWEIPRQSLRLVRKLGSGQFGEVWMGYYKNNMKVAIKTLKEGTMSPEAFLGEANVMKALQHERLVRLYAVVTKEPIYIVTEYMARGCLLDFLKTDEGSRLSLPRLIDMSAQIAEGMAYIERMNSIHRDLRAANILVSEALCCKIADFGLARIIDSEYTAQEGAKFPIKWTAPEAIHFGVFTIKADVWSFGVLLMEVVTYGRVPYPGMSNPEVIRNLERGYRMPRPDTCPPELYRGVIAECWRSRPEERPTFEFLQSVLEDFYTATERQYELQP
Chain of D(1A) dopamine receptor (Homo sapiens) (P21728 whole entry): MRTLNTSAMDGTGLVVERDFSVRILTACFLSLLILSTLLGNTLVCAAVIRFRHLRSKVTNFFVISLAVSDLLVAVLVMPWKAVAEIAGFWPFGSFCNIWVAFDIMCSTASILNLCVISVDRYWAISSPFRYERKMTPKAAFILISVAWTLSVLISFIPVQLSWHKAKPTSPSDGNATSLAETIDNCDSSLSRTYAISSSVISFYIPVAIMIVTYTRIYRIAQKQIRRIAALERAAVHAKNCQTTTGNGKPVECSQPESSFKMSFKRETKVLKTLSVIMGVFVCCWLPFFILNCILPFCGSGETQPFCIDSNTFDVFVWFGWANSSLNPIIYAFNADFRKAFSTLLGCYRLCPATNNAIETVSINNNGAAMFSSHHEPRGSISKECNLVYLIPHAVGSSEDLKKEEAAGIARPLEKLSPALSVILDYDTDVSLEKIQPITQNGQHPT
Chain of Serine/threonine-protein kinase 32B (Homo sapiens) (Q9NY57 whole entry): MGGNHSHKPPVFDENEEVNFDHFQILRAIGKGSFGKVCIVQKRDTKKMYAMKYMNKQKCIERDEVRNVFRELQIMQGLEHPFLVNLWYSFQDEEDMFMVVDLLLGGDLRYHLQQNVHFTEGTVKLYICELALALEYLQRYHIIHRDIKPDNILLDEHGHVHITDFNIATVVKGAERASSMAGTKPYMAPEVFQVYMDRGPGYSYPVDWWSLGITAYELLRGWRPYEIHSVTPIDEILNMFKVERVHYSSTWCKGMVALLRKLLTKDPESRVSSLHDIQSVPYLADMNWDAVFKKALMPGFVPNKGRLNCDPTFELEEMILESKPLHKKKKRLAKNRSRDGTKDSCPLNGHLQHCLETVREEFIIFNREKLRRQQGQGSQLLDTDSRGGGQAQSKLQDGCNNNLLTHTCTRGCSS
Chain of Alpha-2A adrenergic receptor (Homo sapiens) (P08913 whole entry): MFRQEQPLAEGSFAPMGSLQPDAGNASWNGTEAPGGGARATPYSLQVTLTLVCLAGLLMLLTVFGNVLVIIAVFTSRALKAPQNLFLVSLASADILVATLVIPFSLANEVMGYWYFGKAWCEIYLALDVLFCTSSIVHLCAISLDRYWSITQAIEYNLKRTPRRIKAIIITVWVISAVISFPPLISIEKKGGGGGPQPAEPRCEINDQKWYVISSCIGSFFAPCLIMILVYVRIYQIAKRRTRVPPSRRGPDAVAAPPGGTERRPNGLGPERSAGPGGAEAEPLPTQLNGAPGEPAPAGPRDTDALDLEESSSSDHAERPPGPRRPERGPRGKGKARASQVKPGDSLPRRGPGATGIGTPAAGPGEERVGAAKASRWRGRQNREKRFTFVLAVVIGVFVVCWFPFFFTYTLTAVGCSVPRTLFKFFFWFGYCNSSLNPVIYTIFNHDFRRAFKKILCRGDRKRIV
Chain of Sigma intracellular receptor 2 (Q5BJF2 whole entry): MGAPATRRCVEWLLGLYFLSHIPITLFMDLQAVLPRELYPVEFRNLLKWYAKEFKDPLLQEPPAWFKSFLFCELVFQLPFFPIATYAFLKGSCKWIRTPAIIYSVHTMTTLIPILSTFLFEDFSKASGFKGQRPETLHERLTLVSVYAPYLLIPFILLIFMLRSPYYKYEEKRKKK

| Compound | residual activity [10] | residual activity [11] | residual activity [12] | residual activity [13] | residual activity [14] | residual activity [15] | residual activity [16] | residual activity [17] | residual activity [18] | residual activity [19] | residual activity [20] | inhibition [23] | inhibition [25] | other results |
| --- | --- | --- | --- | --- | --- | --- | --- | --- | --- | --- | --- | --- | --- | --- |
| CC(=O)c1c(NS(C)(=O)=O)c2cc(-c3ccc(Cl)cc3)c(-c3ccc(Cl)cc3Cl)nc2n(C)c1=O [MRL-CB1-NC] | 89% | 86% | 97% | 100% | 100% | 100% | 100% | 83% | 100% | 100% | 89% | 14.2% | 19.8% | Ki [1]: 1810 nM; Ki [2]: 22 nM; Ki ([3]; read-out: Ki): 766 nM; Ki ([3]; read-out: pKi (converted)): 794 nM; Ki [4]: 1410 nM; Ki [5]: 1690 nM; Ki [6]: 10000 nM; Ki [7]: 1130 nM; Ki [8]: 1660 nM; Inverse agonism (Cannabinoid receptor 1 [9]): 32.5%; inhibition [21]: 28.7%; inhibition [22]: 29.2%; inhibition [24]: 0.954%; inhibition [26]: 25.6% |
| CC(=O)Nc1c(C(C)=O)c(=O)n(C)c2nc(-c3ccc(Cl)cc3Cl)c(-c3ccc(Cl)cc3)cc12 [NAPHTHYRIDINONE] | 100% | 89% | 100% | 100% | 100% | 100% | 100% | 100% | 100% | 100% | 100% | 2.02% | 1.31% | Ki [27]: 82 nM; pKi [27]: 7.09; Ki [28]: 605 nM; Ki [29]: 1160 nM; EC50 (Cannabinoid receptor 1 [30]): 4.9 nM (active); inhibition [31]: -3.97%; inhibition [32]: 0.657%; inhibition [33]: -9.53%; inhibition [34]: 13.9% |
